The numbers were not newly measured in patent publication US10703773B2, “Glycosyl hesperetin and process for producing the same and uses thereof” (Hayashibara Co. Ltd., priority 2014, dated 2020), which cites them from elsewhere.

The conditions of this data set: in water at ambient temperature.

Consider `COc1ccc([C@@H]2CC(=O)c3c(O)cc(O[C@@H]4O[C@H](CO[C@@H]5O[C@@H](C)[C@H](O)[C@@H](O)[C@H]5O)[C@@H](O)[C@H](O)[C@H]4O)cc3O2)cc1O` [hesperidin], for which the Water solubility result is reported as “about 0.002 w/v %”.
